The results in this text go back to patent US9505713B2, “High-purity sodium p-styrenesulfonate with excellent hue, method for producing the same, poly(sodium p-styrenesulfonate) with excellent hue using the same, and dispersant and synthetic starch for clothing finishing using the poly(sodium p-styrenesulfonate)” (TOSOH ORGANIC CHEMICAL CO., LTD., priority 2012, dated 2016).

Common to all, as to format: physicochemical
Data set [1] in a line: Measurement of repose angle (fluidity of powder). As for the experimental part: <Measurement of Repose Angle>
(1) Instruments and Apparatus
1) On a dish, 80 g of a sample is naturally dropped through a funnel of the apparatus.
2) The vertical angle (a) of a circular cone formed on the dish is read with the protractor up to a digit of an integer.
3) This operation is repeated 3 times, and the average value of the vertical angle (a) of the circular cone is determined.
(§1) The repose angle is calculated by the following equation. […] A=(180−a)/2 wherein A is the repose angle (degrees) and a is the vertical angle (degrees) of the circular cone. <Measurement of Rate of Dissolution (Solubility in Water)>

Data set [2] can be described thus: Measurement of rate of dissolution (solubility in water). The following applies: 25° C. How it is done:
as §1
In a 20-ml glass sample bottle (27 mm in outer diameter×55 mm in depth), 1.00 g of a sodium p-styrenesulfonate powder (wet powder containing impurities and water) was accurately weighed in a temperature-controlled room of 25° C., and thereafter, 9.00 g of ion-exchanged water was quickly added thereto. Then, the sample bottle was turned upside down with a period of one cycle per second, and the time before dissolution of sodium p-styrenesulfonate was visually judged.

Data set [3] can be described thus: Measurement of particle size distribution (laser diffraction/scattering, Microtrack HRA). As for the experimental part:
<Measurement of Particle Size Distribution>
In a 30-ml glass sample bottle, 0.55 g of a sample and 15.0 g of isopropanol were collected, and treated with an ultrasonic washer for 4 minutes while keeping the temperature at 25° C. or less to prepare a slurry. Thereafter, the particle size (median diameter) distribution was measured under the following conditions, using a laser diffraction/scattering type particle size analyzer, Microtrack HRA (manufactured by Nikkiso Co., Ltd.).
Particle transparency=Transp
Particle refractive Index=1.55
Fluid refractive Index=1.38

A short description of data set [4]: Whiteness and yellowness of sodium p-styrenesulfonate powder with color-difference meter. The following applies: sodium p-styrenesulfonate crystal powder. How it is done:
<Measurement of Whiteness and Yellowness of Sodium p-Styrenesulfonate with Color-Difference Meter>
After a color-difference meter (manufactured by Nippon Denshoku Industries Co., Ltd., C-106) was switched on and stabilized for 30 minutes, a light projection lens (30 mm in diameter) and a sample stand (30 mm in diameter) were attached thereto, and standard adjustment was performed. In a cell, 3.0 g of a sample was weighed, and a weight of 1 kg was placed thereon for 30 seconds. Thereafter, it was confirmed that there were no space and no wrinkles at a bottom portion of the cell. Measurement was made with the color-difference meter to read the whiteness (WI value) and the yellowness (YI value).

The nature of data set [5]: APHA values of 15 wt % aqueous sodium p-styrenesulfonate and poly(sodium p-styrenesulfonate) solutions. The following applies: 15 wt % aqueous solution of the monomer. As for the experimental part:
<Measurement of APHA values of Aqueous Sodium p-Styrenesulfonate and Aqueous Poly(Sodium p-Styrenesulfonate) Solutions>
After a color-difference meter (manufactured by Nippon Denshoku Industries Co., Ltd., C-106) was switched on and stabilized for 30 minutes, a measuring method was changed to transmission, and a light projection lens (30 mm in diameter) and a sample stand (30 mm in diameter) were attached thereto. A standard white plate and a 0-CAL plate were set, and zero calibration was performed. After water was poured in a square cell and standard calibration was performed, 15 wt % aqueous sodium p-styrenesulfonate solution and 15 wt % aqueous poly(sodium p-styrenesulfonate) solution samples were each transferred into the square cell, and set, followed by reading the APHA values (converted from a calibration curve prepared by using standard solutions having APHA values of 0 to 500).

The mark [6] stands for this setting: sodium p-styrenesulfonate powder, Table 1, smaller = better fluidity.
The mark [7] stands for this setting: 1.00 g powder in 9.00 g ion-exchanged water, Table 1.
The mark [8] stands for this setting: sodium p-styrenesulfonate powder, Table 1.
Where [9] appears, read: before purification, Table 2, 1.00 g in 9.00 g water.
The mark [10] stands for this setting: after purification, Table 2, 1.00 g in 9.00 g water.
Setting [11] is: listed as sodium p-styrenesulfonate A.
[12] abbreviates: listed as sodium p-styrenesulfonate B.

Several values for one entry are separate records, joined by “and”; a condition that tells them apart may be missing. Identical values can stand only once.

On to `C=Cc1ccc(S(=O)(=O)[O-])cc1.[Na+]` [Comparative Example 4, sodium p-styrenesulfonate], for which the Repose angle in data set [1] (setting [6]) came out at 60 deg. Also, the “Rate of dissolution (dissolution time in water)” value (“Rate of dissolution” for short) in data set [2] (setting [7]) is 126 s. Moreover, in data set [3] (setting [8]), the Median diameter turned out to be 20.6 μm and the “Small particles less than 10.00 μm” value is recorded as 14.3%. In data set [4], the “Whiteness (WI value)” value came out at 93.0 and the “Yellowness (YI value)” value amounted to 10.1. Also, the “Solution APHA value (hue of sodium p-styrenesulfonate)” value in data set [5] is 120.
Turning to `C=Cc1ccc(S(=O)(=O)[O-])cc1.[Na+]` [Example 7, sodium p-styrenesulfonate], in data set [1] (before purification, Table 2), the Repose angle stood at 43 deg. Moreover, in data set [2] (setting [9]), the “Rate of dissolution” value stood at 200 s. In addition, in data set [3] (before purification, Table 2), the Median diameter is 110 μm and 110.0 μm; the “Small particles less than 10.00 μm” value is reported as 0.0%.
`C=Cc1ccc(S(=O)(=O)[O-])cc1.[Na+]` [Example 9, sodium p-styrenesulfonate]: the Repose angle in data set [1] (after purification, Table 2) came to 50 deg. Also, in data set [2] (setting [10]), the “Rate of dissolution” value was found to be 130 s. Further, in data set [3] (after purification, Table 2), the Median diameter was 48 μm and 48.0 μm; the “Small particles less than 10.00 μm” value was 2.5%.
Turning to `C=Cc1ccc(S(=O)(=O)[O-])cc1.[Na+]` [Example 5, sodium p-styrenesulfonate], the Repose angle in data set [1] (setting [6]) is given as 59 deg. Moreover, the “Rate of dissolution” value in data set [2] (setting [7]) stood at 130 s. For the same compound, in data set [3] (setting [8]), the Median diameter is on record as 18.6 μm and the “Small particles less than 10.00 μm” value came to 14.3%. Besides, in data set [4], the “Whiteness (WI value)” value amounted to 95.0 and the “Yellowness (YI value)” value was found to be 7.5. Further, the “Solution APHA value (hue of sodium p-styrenesulfonate)” value in data set [5] is reported as 80.
Regarding `C=Cc1ccc(S(=O)(=O)[O-])cc1.[Na+]` [Comparative Example 1, sodium p-styrenesulfonate], the Repose angle in data set [1] (setting [6]) worked out at 60 deg. For the same compound, the “Rate of dissolution” value in data set [2] (setting [7]) was 132 s. Moreover, the Median diameter in data set [3] (setting [8]) was found to be 20.2 μm. For the same compound, in data set [3] (setting [8]), the “Small particles less than 10.00 μm” value amounted to 12.6%. Moreover, the “Whiteness (WI value)” value in data set [4] and in data set [4] (setting [11]) was 90.2 each time. Besides, the “Yellowness (YI value)” value in data set [4] and in data set [4] (setting [11]) was 16.5 throughout. The “Solution APHA value (hue of sodium p-styrenesulfonate)” value in data set [5] and in data set [5] (setting [11]) was 220 throughout.
Regarding `C=Cc1ccc(S(=O)(=O)[O-])cc1.[Na+]` [Comparative Example 9, sodium p-styrenesulfonate], the Repose angle in data set [1] (after purification, Table 2) was 58 deg; in data set [1] (before purification, Table 2), 59 deg. Further, the “Rate of dissolution” value in data set [2] (setting [10]) amounted to 130 s; in data set [2] (setting [9]), 127 s. Also, the Median diameter is listed as 25.1 μm in data set [3] (after purification, Table 2) and 22.0 μm in data set [3] (before purification, Table 2). The “Small particles less than 10.00 μm” value in data set [3] (after purification, Table 2) was 1.6%; in data set [3] (before purification, Table 2), 12.5%.
In data set [1] (setting [6]), `C=Cc1ccc(S(=O)(=O)[O-])cc1.[Na+]` [Comparative Example 6, sodium p-styrenesulfonate] yielded a Repose angle of 59 deg. Further, the “Rate of dissolution” value in data set [2] (setting [7]) stood at 122 s. Moreover, in data set [3] (setting [8]), the Median diameter worked out at 21.3 μm and the “Small particles less than 10.00 μm” value is listed as 12.7%. Besides, in data set [4], the “Whiteness (WI value)” value was 91.0 and the “Yellowness (YI value)” value is on record as 16.0. Further, in data set [4] (setting [12]), the “Whiteness (WI value)” value is 91.0 and the “Yellowness (YI value)” value is recorded as 16.0. Further, the “Solution APHA value (hue of sodium p-styrenesulfonate)” value in data set [5] is 200. Further, the “Solution APHA value (hue of sodium p-styrenesulfonate)” value in data set [5] (setting [12]) came to 200.
In turn, `C=Cc1ccc(S(=O)(=O)[O-])cc1.[Na+]` [Example 1, sodium p-styrenesulfonate] displayed a Repose angle in data set [1] (setting [6]) of 46 deg. The “Rate of dissolution” value in data set [2] (setting [7]) was 165 s. In data set [3] (setting [8]), the Median diameter is 81 μm and 81.0 μm; the “Small particles less than 10.00 μm” value is 0.5%. In addition, in data set [4], the “Whiteness (WI value)” value was found to be 95.7 and the “Yellowness (YI value)” value amounted to 5.8. The “Solution APHA value (hue of sodium p-styrenesulfonate)” value in data set [5] amounted to 30.
`C=Cc1ccc(S(=O)(=O)[O-])cc1.[Na+]` [Example 8, sodium p-styrenesulfonate] registered a Repose angle in data set [1] (before purification, Table 2) of 51 deg. Moreover, the “Rate of dissolution” value in data set [2] (setting [9]) amounted to 140 s. Also, in data set [3] (before purification, Table 2), the Median diameter was 37 μm and 37.0 μm; the “Small particles less than 10.00 μm” value amounted to 3.1%.
Consider `C=Cc1ccc(S(=O)(=O)[O-])cc1.[Na+]` [Comparative Example 8, sodium p-styrenesulfonate], for which the Repose angle in data set [1] (before purification, Table 2) was found to be 45 deg. For the same compound, the “Rate of dissolution” value in data set [2] (setting [9]) came out at 270 s. Moreover, in data set [3] (before purification, Table 2), the Median diameter is 160 μm and 160.0 μm; the “Small particles less than 10.00 μm” value was 0.0%.
As to `C=Cc1ccc(S(=O)(=O)[O-])cc1.[Na+]` [Comparative Example 7, sodium p-styrenesulfonate], the Repose angle is reported as 58 deg in data set [1] (after purification, Table 2) and 59 deg in data set [1] (before purification, Table 2). For the same compound, the “Rate of dissolution” value in data set [2] (setting [10]) came out at 128 s; in data set [2] (setting [9]), 130 s. Also, the Median diameter in data set [3] (after purification, Table 2) is recorded as 22.3 μm; in data set [3] (before purification, Table 2), 19.8 μm. In addition, the “Small particles less than 10.00 μm” value in data set [3] (after purification, Table 2) worked out at 3.1%; in data set [3] (before purification, Table 2), 13.6%.
For `C=Cc1ccc(S(=O)(=O)[O-])cc1.[Na+]` [Example 6, sodium p-styrenesulfonate], in data set [1] (before purification, Table 2), the Repose angle is 47 deg. For the same compound, the “Rate of dissolution” value in data set [2] (setting [9]) was found to be 160 s. Moreover, in data set [3] (before purification, Table 2), the Median diameter is listed as 63.1 μm and the “Small particles less than 10.00 μm” value is 1.5%.
In the case of `C=Cc1ccc(S(=O)(=O)[O-])cc1.[Na+]` [Comparative Example 3, sodium p-styrenesulfonate], the Repose angle in data set [1] (setting [6]) is 59 deg. In data set [2] (setting [7]), the “Rate of dissolution” value stood at 123 s. In data set [3] (setting [8]), the Median diameter is listed as 21.5 μm and the “Small particles less than 10.00 μm” value is recorded as 12.1%. In data set [4], the “Whiteness (WI value)” value was 93.5 and the “Yellowness (YI value)” value is on record as 12.5. The “Solution APHA value (hue of sodium p-styrenesulfonate)” value in data set [5] turned out to be 150.
Turning to `C=Cc1ccc(S(=O)(=O)[O-])cc1.[Na+]` [Example 2, sodium p-styrenesulfonate], the Repose angle in data set [1] (setting [6]) worked out at 49 deg. The “Rate of dissolution” value in data set [2] (setting [7]) is 155 s. For the same compound, in data set [3] (setting [8]), the Median diameter was 63 μm and 63.0 μm; the “Small particles less than 10.00 μm” value turned out to be 2.0%. Besides, in data set [4], the “Whiteness (WI value)” value came out at 95.5 and the “Yellowness (YI value)” value was 2.9. For the same compound, the “Solution APHA value (hue of sodium p-styrenesulfonate)” value in data set [5] is listed as 15.
